Data on 17 molecules can be found in US20130244929A1 (priority 2010, published 2013).

In one assay the target is T1, SpsB (Staphylococcus aureus, UniProt P0A070).
T1 construct: using a bacterial membrane fraction as a source of SpsB; from tissue
T1 sequence (P0A070 1-191): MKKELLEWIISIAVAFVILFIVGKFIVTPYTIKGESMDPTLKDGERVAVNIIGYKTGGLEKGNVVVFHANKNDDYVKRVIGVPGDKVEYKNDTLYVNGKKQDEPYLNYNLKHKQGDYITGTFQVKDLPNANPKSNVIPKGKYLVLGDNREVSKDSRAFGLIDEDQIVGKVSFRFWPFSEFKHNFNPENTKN
Put plainly: Inhibition of SpsB enzyme activity (fluorescence-based assay, bacterial membrane fraction). Format: biochemical. As to the method: Signal peptidase enzyme activity was measured in a fluorescence-based assay using a bacterial membrane fraction as a source of SpsB (See Bruton et al., 2003, Eur J Med Chem 38:351-356). The SpsB substrate is a synthetic lipopeptide, decanoyl-K(DABCYL)-TPTAKA↓ASKKD-D(EDANS)—NH2 (prepared by JPT Peptide Technologies, Berlin, Germany). Assays were performed with 20 μM peptide substrate (Km≈5 μM) and reactions were initiated with enzyme addition (final protein concentration of 0.6 mg/mL). SpsB mediated cleavage of the peptide substrate was detected as an increase in fluorescence (excitation 340 nm/emission 460 nm).

Assay [1] relates to MB 5393 (COL), a methicillin-resistant S. aureus strain. Nature of the assay: Determination of minimum and synergistic inhibitory concentration. It counts as cell-based. The following applies: for SIC: presence of imipenem (4 μg/mL); for MIC: Staphylococcus aureus. The method, then:
MB 5393 (COL), a methicillin-resistant S. aureus strain, was inoculated into Trypticase Soy Broth (TSB, BBL) and grown in a humidified incubator for 18 hours with rotary shaking at 220 rpm and kept on ice until used.
A quantity of imipenem (Merck Chemical Collection) was weighed out and dissolved into sterile 10 mM MOPS buffer at pH 7. This solution was diluted to 1600 μg/mL, 200 μg/mL, and 25 μg/mL and filter-sterilized through a 0.45 μm filter. From these solutions, seven 1:2 serial dilutions were prepared using sterile 10 mM MOPS buffer at pH 7. The final concentration ranges tested were 128 to 2 μg/mL, 16 to […], and 2 to 0.03 μg/mL. The solutions were kept refrigerated until used.
Test compounds (EXAMPLES 1-67) were prepared in sterile water or DMSO at a concentration of 3.2 mg/mL. From this solution, 11 serial 1:2 dilutions were prepared using sterile water. The final concentration range tested was 64 to 0.0313 μg/mL. The solutions were kept refrigerated until used.
Two-fold serial dilutions of test compounds were tested in the presence and absence of subinhibitory concentrations of imipenem (4 μg/mL) in 96-well U bottom microliter dishes in microbiological growth media. The plates were inoculated with bacterial cells to a final concentration of ˜5×10^5 CFU/mL. Test plates were incubated stationery at 37° C. for 22-24 hours.
After 22 hours of incubation, the Minimum inhibitory concentrations (MICs) were determined, defined as the lowest concentration of antibiotic that prevented all visible growth in the absence of imipenem. Synergistic inhibitory concentrations (SICs) were determined, defined as the lowest concentration of antibiotic that prevented all visible growth in the presence of imipenen.

Where [2] appears, read: MRSA COL, absence of imipenem, 22 hours, read-out: MIC.

SMILES strings stand for the structures. Counter-ions that a name gives are not always drawn. Like-named read-outs stand apart in the source and are kept apart here.

On to `C[C@@H]1NC(=O)[C@@H](N(C)C(=O)[C@H](CCCCN)NC(=O)CCNC(=O)c2ccc(CCCCCCCc3ccccc3)cc2)c2ccc(O)c(c2)-c2cc(ccc2O)C[C@@H](C(=O)O)NC1=O` [EXAMPLE 38], for which the IC50 at SpsB was below 0.01 µM. Besides, the SIC result in assay [1] (MRSA COL, 22 hours) is reported as “G (G: SIC <0.0625)”. For the same molecule, in assay [1] (MRSA, 22 h), the MIC is below 1 mg/L.
Consider `CCCCCCCCCc1ccc(-c2cccc3c(C(=O)NCCC(=O)N[C@@H](CCCCN)C(=O)N(C)[C@@H]4C(=O)N[C@@H](C)C(=O)N[C@H](C(=O)O)Cc5ccc(O)c(c5)-c5cc4ccc5O)cnn23)cc1` [EXAMPLE 65], for which the half-inhibitory concentration (IC50) at SpsB is 0.01 to 0.05 µM. In assay [1] (MRSA COL, 22 hours), the SIC entry is reported as “G (G: SIC <0.0625)”. The MIC in assay [1] (MRSA, 22 h) was 1 to 8 mg/L.
`CCCc1ccc(-c2ccc(C(=O)NCCC(=O)N3CCC[C@H]3C(=O)N(C)[C@@H]3C(=O)N[C@@H](C)C(=O)N[C@H](C(=O)O)Cc4ccc(O)c(c4)-c4cc3ccc4O)cc2)cc1` [EXAMPLE 12, (8S,11S,14S)-3,18-dihydroxy-11-methyl-14-(methyl{[(2S)-1-(3-{[(4′-propylbiphenyl-4-yl)carbonyl]amino}propanoyl)pyrrolidin-2-yl]carbonyl}amino)-10,13-dioxo-9,12-diazatricyclo[13.3.1.1^2,6]icosa-1(19),2(20),3,5,15,17-hexaene-8-carboxylic acid] had an IC50 at SpsB of 0.01 to 0.05 µM. In addition, the SIC result in assay [1] (MRSA COL, 22 hours) was “H (H: SIC 0.062-1)”. In assay [1] (setting [2]), the MIC was above 8 mg/L.
On SpsB, `CCCCCCCCc1ccc(-c2ccc(C(=O)NCCC(=O)N[C@@H](CCCCN)C(=O)N(C)[C@@H]3C(=O)N[C@@H](C)C(=O)N[C@H](C(=O)O)Cc4ccc(O)c(c4)-c4cc3ccc4O)cc2)cc1` [EXAMPLE 23] showed a concentration for half-maximal inhibition (IC50) below 0.01 µM. In addition, the SIC result in assay [1] (MRSA COL, 22 hours) was “G (G: SIC <0.0625)”. Further, the MIC in assay [1] (MRSA, 22 h) is below 1 mg/L.
In turn, `CCCc1ccc(-c2ccc(C(=O)NCCC(=O)N3CCC[C@@H]3C(=O)N(C)[C@@H]3C(=O)N[C@@H](C)C(=O)N[C@H](C(=O)O)Cc4ccc(OC)c(c4)-c4cc3ccc4OC)cc2)cc1` [EXAMPLE 13, (8S,11S,14S)-3,18-dimethoxy-11-methyl-14-(methyl{[(2R)-1-(3-{[(4′-propylbiphenyl-4-yl)carbonyl]amino}propanoyl)pyrrolidin-2-yl]carbonyl}amino)-10,13-dioxo-9,12-diazatricyclo[13.3.1.1^2,6]icosa-1(19),2(20),3,5,15,17-hexaene-8-carboxylic acid] displayed an IC50 at SpsB above 0.05 µM. Further, in assay [1] (MRSA COL, 22 hours), the SIC entry is listed as “I (I: SIC >1)”. For the same molecule, in assay [1] (setting [2]), the MIC was above 8 mg/L.
As to `CCCc1ccc(-c2ccc(C(=O)NCCC(=O)N[C@@H](CCCCNC=N)C(=O)N(C)[C@@H]3C(=O)N[C@@H](C)C(=O)N[C@H](C(=O)O)Cc4ccc(O)c(c4)-c4cc3ccc4O)cc2)cc1` [EXAMPLE 48], the IC50 at SpsB is below 0.01 µM. Also, the SIC entry in assay [1] (MRSA COL, 22 hours) is “H (H: SIC 0.062-1)”. Moreover, in assay [1] (MRSA, 22 h), the MIC was 1 to 8 mg/L.
The molecule `C[C@@H]1NC(=O)[C@@H](N(C)C(=O)C(CCCCN)NC(=O)CCNC(=O)c2ccc(-c3ccc(-c4ccccc4)cc3)cc2)c2ccc(O)c(c2)-c2cc(ccc2O)C[C@@H](C(=O)O)NC1=O.O=C(O)C(F)(F)F` (stereo partly drawn) [EXAMPLE 7, 6-[[(7S,10S,13S)-13-carboxy-3,18-dihydroxy-10-methyl-8,11-dioxo-9,12-diazatricyclo[13.3.1.1^2,6]icosa-1(19),2(20),3,5,15,17-hexaen-7-yl](methyl)amino]-6-oxo-5-({3-[(1,1′:4′,1″-terphenyl-4-ylcarbonyl)amino]propanoyl}amino)hexan-1-aminium trifluoroacetate] displayed an IC50 on SpsB of 0.01 to 0.05 µM. For the same molecule, in assay [1] (MRSA COL, 22 hours), the SIC result is given as “H (H: SIC 0.062-1)”. Further, the MIC in assay [1] (setting [2]) was below 1 mg/L.
`CCCCCCCCCc1ccc(-c2ccc(C(=O)NCCC(=O)N[C@@H](CCCCN)C(=O)N(C)[C@@H]3C(=O)N[C@@H](C)C(=O)N[C@H](C(=O)O)Cc4ccc(O)c(c4)-c4cc3ccc4O)c3ccccc23)cc1` [EXAMPLE 52] yielded an IC50 on SpsB below 0.01 µM. For the same molecule, in assay [1] (MRSA COL, 22 hours), the SIC result is listed as “G (G: SIC <0.0625)”. The minimal inhibitory concentration (MIC) in assay [1] (MRSA, 22 h) is 1 to 8 mg/L.
The matching figures for `CCCCCCCCCc1ccc(-c2ccc(C(=O)NCCC(=O)N[C@@H](CCCCN)C(=O)N(C)[C@@H]3C(=O)N[C@@H](C)C(=O)N[C@H](C(=O)O)Cc4ccc(O)c(c4)-c4cc3ccc4O)c(O)c2)cc1` [EXAMPLE 39]: below 0.01 µM, “G (G: SIC <0.0625)” and below 1 mg/L.
`CCCCCCCCCc1ccc(-c2ccc(C(=O)NCCC(=O)N3C[C@H](N)C[C@H]3C(=O)N(C)[C@@H]3C(=O)N[C@@H](C)C(=O)N[C@H](C(=O)O)Cc4ccc(O)c(c4)-c4cc3ccc4O)cc2)cc1` [EXAMPLE 40] displayed an IC50 against SpsB below 0.01 µM. In addition, the SIC result in assay [1] (MRSA COL, 22 hours) is “G (G: SIC <0.0625)”. The MIC in assay [1] (MRSA, 22 h) was below 1 mg/L.
Molecule `CCCCCCCCCc1ccc(-c2ccc(C(=O)NCCC(=O)N[C@@H](CCCN)C(=O)N(C)C3C(=O)N[C@@H](C)C(=O)N[C@H](C(=O)O)Cc4ccc(O)c(c4)-c4cc3ccc4O)cc2)cc1` (stereo partly drawn) [EXAMPLE 24] had a 50% inhibitory concentration (IC50) at SpsB below 0.01 µM. In assay [1] (MRSA COL, 22 hours), the SIC result is “G (G: SIC <0.0625)”. For the same molecule, the MIC in assay [1] (MRSA, 22 h) is below 1 mg/L.
Regarding `CCCCc1ccc(C#Cc2ccc(C(=O)NCCC(=O)NC(CCCCN)C(=O)N(C)[C@@H]3C(=O)N[C@@H](C)C(=O)N[C@H](C(=O)O)Cc4ccc(OC)c(c4)-c4cc3ccc4OC)cc2)cc1` (stereo partly drawn) [EXAMPLE 10, 5-{[3-({4-[(4-butylphenyl)ethynyl]benzoyl}amino)propanoyl]amino}-6-[[(7S,10S,13S)-13-carboxy-3,18-dimethoxy-10-methyl-8,11-dioxo-9,12-diazatricyclo[13.3.1.1^2,6]icosa-1(19),2(20),3,5,15,17-hexaen-7-yl](methyl)amino]-6-oxohexart-1-aminium trifluoroacetate], the IC50 at SpsB was below 0.01 µM. For the same molecule, the SIC result in assay [1] (MRSA COL, 22 hours) is “H (H: SIC 0.062-1)”. In assay [1] (setting [2]), the MIC lay in the range of 1 to 8 mg/L.
`CCCCCCCOCc1ccc(-c2ccc(C(=O)NCCC(=O)N[C@@H](CCCCN)C(=O)N(C)[C@@H]3C(=O)N[C@@H](C)C(=O)N[C@H](C(=O)O)Cc4ccc(O)c(c4)-c4cc3ccc4O)cc2)cc1` [EXAMPLE 36]: the IC50 against SpsB was below 0.01 µM. Further, the SIC entry in assay [1] (MRSA COL, 22 hours) was “G (G: SIC <0.0625)”. The MIC in assay [1] (MRSA, 22 h) is below 1 mg/L.
On SpsB, `CCCCCCCCCc1ccc(-c2ccc(C(=O)NCCC(=O)N3CC[C@H]3C(=O)N(C)[C@@H]3C(=O)N[C@@H](C)C(=O)N[C@H](C(=O)O)Cc4ccc(O)c(c4)-c4cc3ccc4O)cc2)cc1` [EXAMPLE 19, (8S,11S,14S)-3,18-dihydroxy-11-methyl-14-(methyl{[(2)-1-(3-{[(4′-nonylbiphenyl-4-yl)carbonyl]amino}propanoyl)azetidin-2-yl]carbonyl}amino)-10,13-dioxo-9,12-diazatricyclo[13.3.1.1^2,6]icosa-1(19),2(20),3,5,15,17-hexaene-8-carboxylic acid] showed an IC50 below 0.01 µM. The SIC entry in assay [1] (MRSA COL, 22 hours) is listed as “G (G: SIC <0.0625)”. Besides, the MIC in assay [1] (setting [2]) is 1 to 8 mg/L.
Molecule `CCCCCCCCCc1ccc(-c2ccc(C(=O)NCCC(=O)N[C@@H](CCCCN)C(=O)N(C)[C@@H]3C(=O)N[C@@H](C)C(=O)N[C@H](C(=O)O)Cc4ccc(O)c(c4)-c4cc3ccc4O)cc2)cc1.O=C(O)C(F)(F)F` [EXAMPLE 16, (5S)-6-[[(7S,10S,13S)-13-carboxy-3,18-dihydroxy-10-methyl-8,11-dioxo-9,12-diazatricyclo[13.3.1.1^2,6]icosa-1(19),2(20),3,5,15,17-hexaen-7-yl](methyl)amino]-5-[(3-{[(4′-nonylbiphenyl-4-yl)carbonyl]amino}propanoyl)amino]-6-oxohexan-1-aminium trifluoroacetate] returned an IC50 at SpsB below 0.01 µM. The SIC entry in assay [1] (MRSA COL, 22 hours) is on record as “G (G: SIC <0.0625)”. Moreover, the MIC in assay [1] (setting [2]) is below 1 mg/L.
As to `CCCc1ccc(-c2ccc(C(=O)NCCC(=O)NC(CCCCN)C(=O)N(C)[C@@H]3C(=O)N[C@@H](C)C(=O)N[C@H](C(N)=O)Cc4ccc(O)c(c4)-c4cc3ccc4O)cc2)cc1.O=C(O)C(F)(F)F` (stereo partly drawn) [EXAMPLE 6], the SIC entry in assay [1] (MRSA COL, 22 hours) was “H (H: SIC 0.062-1)”. Besides, the MIC in assay [1] (MRSA, 22 h) is below 1 mg/L.
As for `CCCc1ccc(-c2ccc(C(=O)NCCC(=O)NC(CCCCN)C(=O)N(C)[C@@H]3C(=O)N[C@@H](C)C(=O)N[C@H](C(N)=O)Cc4ccc(O)c(c4)-c4cc3ccc4O)cc2)cc1.O=C(O)C(F)(F)F` (stereo partly drawn) [EXAMPLE 6, trifluoroacetate], the half-maximal inhibitory concentration (IC50) against SpsB lay within 0.01 to 0.05 µM.
